What follows are compounds tested on Molt-4 cells (assay: CellTiter-Glo Luminescent Cell Viability Assay (growth inhibition, 72 hour incubation)). Conditions: Homo sapiens, 72 hours treatment, CellTiter Glo luminescence.
Assay type: cell-based
Excerpt: CellTiter-Glo Luminescent Cell Viability Assay Kit was obtained from Promega. RPMI 1640 was obtained from Invitrogen. Fetal Bovine Serum (FBS) was obtained from Corning. L-glutamine was obtained from Invitrogen. 100× Penicillin-Streptomycin was obtained from HyClone. 0.05% Trypsin-EDTA (T-E) was obtained from Invitrogen. DPBS was obtained from Corning. DMSO was obtained from Sigma. Black 384 well plates were obtained from Greiner. 96-well V bottom plates were obtained from Axygen. For cell seeding on Day “−1”, the density of Molt-4 cells was adjusted according to supplier-recommended information. 50 μL cells were seeded in four 384-well-plates, and 50 μL DPBS was added to the edge wells. On Day 0, test compounds were dissolved in DMSO and stored in a nitrogen cabinet. The stock concentration of the test compounds was 120 mM. The stock concentration of the reference compounds was 10 mM. Test compounds (125 nL in DMSO) were added to the wells and serially diluted by three fold, providing 10 doses in each series with a maximum concentration of 300 μM. Equal volumes of DMSO without test compound were transferred to control rows in the well plate. Using this procedure, the DMSO concentration across the well plate was 0.25% (v/v). On Day 3 (after the cells were treated with the compounds for 72 hours), the plates were equilibrated at room temperature for approximately 30 minutes. 25 μL of CellTiter Glo reagent was added to each well, and the luminescence in each well was measured after 10 min using an ENVISION fluorescence plate reader (PerkinElmer). The calculation formula used for data analysis was: Inhibition %=(Max−Sample Value)/Max*100. Curves were fitted by Prism with a Sigmoidal dose-response (variable slope) model and generated by 4 Parameter Logistic Model or Sigmoidal Dose-Response Model, Y=Bottom+(Top−Bottom)/(1+10^((log EC50−x)*HillSlope)). To evaluate the anti-tumor activity of the compounds, the growth inhibitory effect of the compound was measured in various human cancer cell lines after 72 hour incubation. In the assays, the viability of the Molt-4 cells was greater than 85% during the initial cell plating. All the cell plates met the criteria that the coefficient of variation (CV)<10%. Observed IC50 values are summarized below, along with the observed IC50 value for reference compound 6-chloro-3-(2,4-dichloro-5-methoxyphenyl)-2-mercapto-7-methoxyquinazolin-4(3H)-one.

Row | Structure (SMILES) | IC50 [nM]
1 | C=Cc1c(OC)c(Cl)cc2c(=O)n(-c3cc(OC)c(Cl)cc3Cl)c(S)nc12 [Compound 12, 6-Chloro-3-(2,4-dichloro-5-methoxyphenyl)-2-mercapto-7-methoxy-8-vinylquinazolin-4(3H)-one] | > 30000
2 | COc1cc(-n2c(S)nc3cc(OC)c(Cl)cc3c2=O)c(Cl)cc1Cl [Ref. 1, 6-chloro-3-(2,4-dichloro-5-methoxyphenyl)-2-mercapto-7-methoxyquinazolin-4(3H)-one, reference compound] | 3000 to 30000
3 | COc1ccc2c(=O)n(-c3cc(OC)c(Cl)cc3Cl)c(S)nc2c1 [Compound 5, 3-(2,4-dichloro-5-methoxyphenyl)-2-mercapto-7-methoxyquinazolin-4(3H)-one] | 3000 to 30000
4 | COc1cc(-n2c(S)nc3cc(OC)c(OC)cc3c2=O)c(Cl)cc1Cl [Compound 6, 3-(2,4-dichloro-5-methoxyphenyl)-2-mercapto-6,7-dimethoxyquinazolin-4(3H)-one] | < 3000
5 | COc1cc2nc(S)n(-c3cc(F)c(Cl)cc3Cl)c(=O)c2cc1Cl [Compound 4, 6-Chloro-3-(2,4-dichloro-5-fluorophenyl)-2-mercapto-7-methoxyquinazolin-4(3H)-one] | 3000 to 30000
6 | COc1cc(-n2c(S)nc3c(C4CC4)c(OC)c(Cl)cc3c2=O)c(Cl)cc1Cl [Compound 13, 6-Chloro-8-cyclopropyl-3-(2,4-dichloro-5-methoxyphenyl)-2-mercapto-7-methoxyquinazolin-4(3H)-one] | 3000 to 30000
7 | COc1cc2nc(S)n(-c3cc(OC)c(Cl)cc3Cl)c(=O)c2cc1N [Compound 8, 6-Amino-3-(2,4-dichloro-5-methoxyphenyl)-2-mercapto-7-methoxyquinazolin-4(3H)-one] | < 3000
8 | COc1cc(-n2c(S)nc3cc(C4CC4)c(Cl)cc3c2=O)c(Cl)cc1Cl [Compound 11, 6-Chloro-7-cyclopropyl-3-(2,4-dichloro-5-methoxyphenyl)-2-mercaptoquinazolin-4(3H)-one] | 3000 to 30000
9 | COc1cc(-n2c(S)nc3cc(OC)c(Cl)cc3c2=O)c(OC)cc1Cl [Compound 3, 6-Chloro-3-(4-chloro-2,5-dimethoxyphenyl)-2-mercapto-7-methoxyquinazolin-4(3H)-one] | 3000 to 30000
10 | COc1cc2nc(S)n(-c3cc(OC)c(OC)cc3Cl)c(=O)c2cc1Cl [Compound 1, 6-Chloro-3-(2-chloro-4,5-dimethoxyphenyl)-2-mercapto-7-methoxyquinazolin-4(3H)-one] | > 30000
11 | Cc1cc(-n2c(S)nc3ccc(Cl)cc3c2=O)c(Cl)cc1Cl [Compound 10, 6-chloro-3-(2,4-Dichloro-5-methylphenyl)-2-mercaptoquinazolin-4(3H)-one] | 3000 to 30000
12 | COc1cc(-n2c(S)nc3cc(OC)c(C4CC4)cc3c2=O)c(Cl)cc1Cl [Compound 9, 6-Cyclopropyl-3-(2,4-dichloro-5-methoxyphenyl)-2-mercapto-7-methoxyquinazolin-4(3H)-one] | < 3000
13 | COc1cc(-n2c(S)nc3cc(OC)c(Cl)cc3c2=O)c(Cl)cc1F [Compound 2, 6-Chloro-3-(2-chloro-4-fluoro-5-methoxyphenyl)-2-mercapto-7-methoxyquinazolin-4(3H)-one] | 3000 to 30000
14 | COc1cc2nc(S)n(-c3cc(OC)c(Cl)cc3Cl)c(=O)c2cc1O [Compound 7, 3-(2,4-Dichloro-5-methoxyphenyl)-6-hydroxy-2-mercapto-7-methoxyquinazolin-4(3H)-one] | < 3000

Reference: patent US12454514B2, “Quinazolinone compounds” (Cerepeut, Inc., priority 2019, dated 2025)
